Reference: ChEMBL document CHEMBL1201862, “PubChem BioAssay data set” (2004)
Active and inactive are the calls of the source.

Columns and labels:
BJ [1] = assay: BJ-TERT fibroblast viability loss – cell-based, RAS-independent, luminescence, dose response (AID 1933); type: functional; conditions: Homo sapiens
BJ [2] = assay: cells; type: functional, cell-based; conditions: Homo sapiens
BJ [3] = assay: BJ-TERT-LT-ST fibroblast viability loss – cell-based, RAS-independent, luminescence, dose response (AID 1935); type: functional; conditions: Homo sapiens;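 note: BJ fibroblasts immortalized with TERT plus LT and ST oncogenes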
[4] = DRD fibroblast viability loss – cell-based, non-viral oncogenic, luminescence, dose response (AID 1934); type: functional; conditions: Homo sapiens
[5] = target: T1, Microphthalmia-associated transcription factor (Homo sapiens, UniProt O75030); assay: reducers of TRPM1 reporter luminescence, concentration series – cell-based, SK-MEL-5, cherry-picked, set 3, MITF inhibitor project, dose response (AID 493073); type: functional;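 note: SK-MEL-5 melanoma cells with luciferase driven by the MITF target TRPM1 promoter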
T1 sequence (O75030 whole entry): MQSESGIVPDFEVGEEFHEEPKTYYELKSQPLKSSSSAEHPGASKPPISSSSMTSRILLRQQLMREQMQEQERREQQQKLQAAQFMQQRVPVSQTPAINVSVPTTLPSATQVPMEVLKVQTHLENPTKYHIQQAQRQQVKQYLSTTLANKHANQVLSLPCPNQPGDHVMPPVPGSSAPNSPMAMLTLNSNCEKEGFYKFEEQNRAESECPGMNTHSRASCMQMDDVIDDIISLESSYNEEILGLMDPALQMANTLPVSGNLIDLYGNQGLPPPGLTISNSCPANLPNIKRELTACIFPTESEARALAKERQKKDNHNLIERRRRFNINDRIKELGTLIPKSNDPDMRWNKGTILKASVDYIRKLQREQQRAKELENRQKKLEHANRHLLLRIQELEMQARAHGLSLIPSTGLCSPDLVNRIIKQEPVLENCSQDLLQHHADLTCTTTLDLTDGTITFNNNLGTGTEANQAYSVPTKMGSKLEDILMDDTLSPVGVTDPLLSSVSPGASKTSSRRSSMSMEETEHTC

[6] = target: T2, Replicative DNA helicase DnaB (Mycobacterium tuberculosis, UniProt P9WMR3); assay: DnaB intein splicing inhibitors, dose response, biochemical, cell-free fluorescence (AID 449749); type: functional
T2 sequence (P9WMR3 whole entry): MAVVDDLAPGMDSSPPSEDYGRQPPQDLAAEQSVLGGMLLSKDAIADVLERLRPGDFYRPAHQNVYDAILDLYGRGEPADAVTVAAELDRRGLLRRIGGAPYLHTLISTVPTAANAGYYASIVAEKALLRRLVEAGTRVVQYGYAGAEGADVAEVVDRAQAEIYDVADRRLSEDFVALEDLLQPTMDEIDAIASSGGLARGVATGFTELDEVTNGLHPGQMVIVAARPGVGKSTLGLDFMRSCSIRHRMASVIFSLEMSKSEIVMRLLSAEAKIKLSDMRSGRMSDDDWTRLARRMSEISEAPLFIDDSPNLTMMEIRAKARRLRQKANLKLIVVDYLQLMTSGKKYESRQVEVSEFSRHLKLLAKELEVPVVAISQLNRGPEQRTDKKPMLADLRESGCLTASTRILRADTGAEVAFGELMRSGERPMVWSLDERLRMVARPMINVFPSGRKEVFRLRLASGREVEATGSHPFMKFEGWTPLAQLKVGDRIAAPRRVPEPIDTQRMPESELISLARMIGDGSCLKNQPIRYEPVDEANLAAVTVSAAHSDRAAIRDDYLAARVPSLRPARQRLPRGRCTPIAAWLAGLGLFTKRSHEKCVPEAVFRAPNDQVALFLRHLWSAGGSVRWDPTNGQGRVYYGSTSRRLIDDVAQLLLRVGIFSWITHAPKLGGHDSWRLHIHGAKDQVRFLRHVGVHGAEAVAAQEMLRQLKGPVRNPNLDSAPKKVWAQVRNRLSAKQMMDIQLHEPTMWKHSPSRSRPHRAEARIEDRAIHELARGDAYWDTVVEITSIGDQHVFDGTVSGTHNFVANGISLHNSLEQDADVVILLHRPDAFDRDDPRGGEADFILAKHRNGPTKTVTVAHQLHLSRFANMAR

Protein RecA = target: T3, Protein RecA (Mycobacterium tuberculosis, UniProt P9WHJ3); assay: Fluorescence Cell-Free Homogeneous Dose Retest to Identify Inhibitors of RecA-Intein Splicing Activity. [Related pubchem assays (depositor defined):AID2097, AID2223, AID489010, AID492950]; type: functional
T3 sequence (P9WHJ3 whole entry): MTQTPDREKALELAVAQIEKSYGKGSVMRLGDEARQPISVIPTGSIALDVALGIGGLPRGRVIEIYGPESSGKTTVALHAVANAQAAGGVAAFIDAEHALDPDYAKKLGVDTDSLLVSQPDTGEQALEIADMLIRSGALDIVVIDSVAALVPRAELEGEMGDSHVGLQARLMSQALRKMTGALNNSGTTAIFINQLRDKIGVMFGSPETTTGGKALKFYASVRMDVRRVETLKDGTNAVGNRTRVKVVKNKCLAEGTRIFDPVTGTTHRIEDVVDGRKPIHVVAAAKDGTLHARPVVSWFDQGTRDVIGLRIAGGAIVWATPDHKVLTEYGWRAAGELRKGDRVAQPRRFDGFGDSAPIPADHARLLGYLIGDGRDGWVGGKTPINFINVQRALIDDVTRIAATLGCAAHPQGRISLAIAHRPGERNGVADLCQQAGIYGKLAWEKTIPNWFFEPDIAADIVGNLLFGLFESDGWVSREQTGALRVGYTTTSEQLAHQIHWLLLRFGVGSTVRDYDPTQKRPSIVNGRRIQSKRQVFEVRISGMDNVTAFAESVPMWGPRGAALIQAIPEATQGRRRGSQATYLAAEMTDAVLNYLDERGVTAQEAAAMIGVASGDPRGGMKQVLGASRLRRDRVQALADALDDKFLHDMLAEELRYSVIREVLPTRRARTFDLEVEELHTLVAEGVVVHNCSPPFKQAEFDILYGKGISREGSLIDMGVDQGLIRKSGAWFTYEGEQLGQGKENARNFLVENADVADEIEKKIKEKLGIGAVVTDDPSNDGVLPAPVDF

A-375 [7] = assay: MITF: Counter assay: A375 proliferation Measured in Cell-Based System Using Plate Reader - 2084-03_Inhibitor_Dose_DryPowder_Activity. [Related pubchem assays (depositor defined):AID488944]; type: functional; conditions: Homo sapiens
A-375 [8] = assay: proliferation inhibition in MITF-low A375 cells – cell-based, cherry-pick samples, set 2, counter-screen for MITF modulator project, dose response (AID 540335); type: functional; conditions: Homo sapiens
[9] = THP-1 cell cytotoxicity, dose response, cytotoxicity control for non-replicating M. tuberculosis project (AID 489025); type: functional
[10] = HepG2 cell cytotoxicity, dose response, cytotoxicity control for non-replicating M. tuberculosis project (AID 489018); type: functional; conditions: Mycobacterium tuberculosis
[11] = Vero E6 cell cytotoxicity, dose response, cytotoxicity control for non-replicating M. tuberculosis project, secondary assay (AID 492998); type: functional, VeroE6; conditions: Vero C1008
cells = type: functional
[12] = target: Glycogen synthase kinase-3 alpha (Homo sapiens, UniProt P49840); assay: Inhibition of Human GSK-3 alpha Activity Measured in Biochemical System Using Microfluidics - 2063-06_Inhibitor_Dose_DryPowder_Activity. [Related pubchem assays (depositor defined):AID2709]
[13] = target: Glycogen synthase kinase-3 beta (Homo sapiens, UniProt P49841); assay: Inhibition of Human GSK-3 beta Activity Measured in Biochemical System Using Microfluidics - 2063-05_Inhibitor_Dose_DryPowder_Activity. [Related pubchem assays (depositor defined):AID2709]
[14] = system: Streptococcus sp. 'group A'; assay: Streptococcus pyogenes SK(-)GAS viability under kanamycin – luminescence, BacTiterGlo, confirmation, counter-screen for streptokinase expression inhibitor project, dose response (AID 1900); type: functional, organism-based
Streptococcus = assay: GAS UMAA2166 growth inhibition – luminescence, BacTiterGlo, counter-screen for streptokinase expression inhibitor project, dose response (AID 1915); type: functional, organism-based;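 note: potency for reduction of bacterial viability or growth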
ORF 73 = ORF 73 (Human herpesvirus 8, UniProt O40947); assay: KSHV LANA DNA-binding disruption – biochemical, fluorescence polarization, cherry-picked samples, dose response (AID 504725); design: species or system Human gammaherpesvirus 8;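 note: fluorescence polarization of a labeled DNA duplex reporting LANA DNA binding; potency is for inhibitors that block LANA binding to the DNA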
[15] = target: T4, Apoptotic protease-activating factor 1 (Homo sapiens, UniProt O14727); assay: activation of Apaf-1 mediated apoptosis – fluorescent, uHTS hits, dose response (AID 588554); type: functional
T4 sequence (O14727 whole entry): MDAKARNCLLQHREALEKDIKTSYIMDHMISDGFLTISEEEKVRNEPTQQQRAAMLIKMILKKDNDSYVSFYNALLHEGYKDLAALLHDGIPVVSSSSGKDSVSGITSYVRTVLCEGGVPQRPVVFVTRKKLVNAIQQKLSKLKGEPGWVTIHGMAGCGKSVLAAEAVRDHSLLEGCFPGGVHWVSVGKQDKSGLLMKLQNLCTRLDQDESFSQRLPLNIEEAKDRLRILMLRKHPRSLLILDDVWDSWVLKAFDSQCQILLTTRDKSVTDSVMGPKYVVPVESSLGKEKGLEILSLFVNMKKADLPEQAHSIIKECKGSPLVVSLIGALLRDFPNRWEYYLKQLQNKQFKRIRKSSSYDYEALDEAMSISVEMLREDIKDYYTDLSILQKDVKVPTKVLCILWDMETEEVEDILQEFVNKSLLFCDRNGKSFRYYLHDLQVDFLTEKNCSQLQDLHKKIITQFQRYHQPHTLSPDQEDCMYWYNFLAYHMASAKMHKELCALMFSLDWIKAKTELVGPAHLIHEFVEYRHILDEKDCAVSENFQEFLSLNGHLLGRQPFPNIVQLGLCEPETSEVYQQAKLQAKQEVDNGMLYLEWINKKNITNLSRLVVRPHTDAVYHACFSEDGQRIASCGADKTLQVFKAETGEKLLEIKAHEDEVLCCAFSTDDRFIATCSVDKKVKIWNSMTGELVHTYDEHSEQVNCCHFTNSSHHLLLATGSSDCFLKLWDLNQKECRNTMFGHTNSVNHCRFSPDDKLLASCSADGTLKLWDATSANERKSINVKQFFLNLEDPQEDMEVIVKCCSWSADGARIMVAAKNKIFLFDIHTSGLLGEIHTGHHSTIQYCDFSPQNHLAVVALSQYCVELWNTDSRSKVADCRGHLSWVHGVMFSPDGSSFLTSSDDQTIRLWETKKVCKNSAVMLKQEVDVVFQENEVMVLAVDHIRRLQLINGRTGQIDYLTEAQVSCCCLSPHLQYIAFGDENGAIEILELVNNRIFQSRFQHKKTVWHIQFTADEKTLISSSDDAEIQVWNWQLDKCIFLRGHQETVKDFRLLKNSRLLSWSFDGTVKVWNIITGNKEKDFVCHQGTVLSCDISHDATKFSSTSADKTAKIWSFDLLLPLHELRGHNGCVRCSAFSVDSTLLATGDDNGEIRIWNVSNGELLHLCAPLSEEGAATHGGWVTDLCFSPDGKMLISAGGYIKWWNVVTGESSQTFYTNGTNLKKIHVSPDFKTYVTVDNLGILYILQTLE

[16] = target: 26S proteasome non-ATPase regulatory subunit 14 (Homo sapiens, UniProt O00487); assay: inhibition of proteasome subunit RPN11 – biochemical, fluorescence polarization, uHTS hits, confirmation (AID 602368); type: functional
[17] = target: 72 kDa type IV collagenase (Homo sapiens, UniProt P08253); assay: Dose Response validation of uHTS RPN11 inhibitor hits using a MMP-2 Fluorescence assay.; type: functional
Prothrombin = Prothrombin (Bos taurus, UniProt P00735); assay: thrombin protease inhibitors – biochemical, fluorescence polarization, uHTS hits, dose response (AID 602369); type: functional
[18] = target: T5, Probable nicotinate-nucleotide adenylyltransferase (Staphylococcus aureus (strain N315), UniProt P65502); type: functional, Staphylococcus aureus subsp. aureus N315;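 for IC50 Mean: confirmatory dose-response retesting of NadD inhibitor hits first found in an ultra-high-throughput screen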
[19] = target: T5, Probable nicotinate-nucleotide adenylyltransferase; type: functional, Staphylococcus aureus subsp. aureus N315; conditions: read-out: IC50_Mean

T5 sequence (P65502 whole entry): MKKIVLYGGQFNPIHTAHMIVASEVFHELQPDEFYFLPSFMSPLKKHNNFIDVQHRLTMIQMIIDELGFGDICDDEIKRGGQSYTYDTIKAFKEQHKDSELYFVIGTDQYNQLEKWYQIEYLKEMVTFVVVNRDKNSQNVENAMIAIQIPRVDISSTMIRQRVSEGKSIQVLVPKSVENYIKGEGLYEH
72 kDa type IV collagenase, sequence (P08253 whole entry): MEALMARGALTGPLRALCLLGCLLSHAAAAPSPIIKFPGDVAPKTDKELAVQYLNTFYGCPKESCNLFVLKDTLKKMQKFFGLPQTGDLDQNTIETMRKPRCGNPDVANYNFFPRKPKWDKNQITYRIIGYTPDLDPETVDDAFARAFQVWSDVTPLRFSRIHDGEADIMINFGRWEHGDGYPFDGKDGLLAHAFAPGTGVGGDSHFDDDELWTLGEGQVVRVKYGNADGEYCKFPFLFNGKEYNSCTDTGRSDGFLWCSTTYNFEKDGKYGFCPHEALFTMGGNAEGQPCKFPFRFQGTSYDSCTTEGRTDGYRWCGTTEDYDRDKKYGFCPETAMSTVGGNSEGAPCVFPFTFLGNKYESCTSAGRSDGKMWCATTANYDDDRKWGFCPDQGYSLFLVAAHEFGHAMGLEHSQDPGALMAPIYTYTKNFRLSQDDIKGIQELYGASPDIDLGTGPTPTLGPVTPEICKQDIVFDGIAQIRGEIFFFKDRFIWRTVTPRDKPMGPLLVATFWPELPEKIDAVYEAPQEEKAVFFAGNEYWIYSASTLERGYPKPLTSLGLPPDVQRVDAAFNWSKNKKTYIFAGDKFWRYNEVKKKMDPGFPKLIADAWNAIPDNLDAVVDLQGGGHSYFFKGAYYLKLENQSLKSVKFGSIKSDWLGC
26S proteasome non-ATPase regulatory subunit 14, sequence (O00487 whole entry): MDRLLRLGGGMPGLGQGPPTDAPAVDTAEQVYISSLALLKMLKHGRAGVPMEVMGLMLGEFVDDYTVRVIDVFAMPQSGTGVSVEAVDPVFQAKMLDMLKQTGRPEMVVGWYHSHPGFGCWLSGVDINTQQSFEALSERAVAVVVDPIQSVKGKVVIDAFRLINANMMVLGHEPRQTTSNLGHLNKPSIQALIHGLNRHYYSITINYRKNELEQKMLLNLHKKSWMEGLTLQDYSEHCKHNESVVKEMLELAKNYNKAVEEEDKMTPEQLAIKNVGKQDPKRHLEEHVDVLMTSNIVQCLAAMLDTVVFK
Glycogen synthase kinase-3 alpha, sequence (P49840 whole entry): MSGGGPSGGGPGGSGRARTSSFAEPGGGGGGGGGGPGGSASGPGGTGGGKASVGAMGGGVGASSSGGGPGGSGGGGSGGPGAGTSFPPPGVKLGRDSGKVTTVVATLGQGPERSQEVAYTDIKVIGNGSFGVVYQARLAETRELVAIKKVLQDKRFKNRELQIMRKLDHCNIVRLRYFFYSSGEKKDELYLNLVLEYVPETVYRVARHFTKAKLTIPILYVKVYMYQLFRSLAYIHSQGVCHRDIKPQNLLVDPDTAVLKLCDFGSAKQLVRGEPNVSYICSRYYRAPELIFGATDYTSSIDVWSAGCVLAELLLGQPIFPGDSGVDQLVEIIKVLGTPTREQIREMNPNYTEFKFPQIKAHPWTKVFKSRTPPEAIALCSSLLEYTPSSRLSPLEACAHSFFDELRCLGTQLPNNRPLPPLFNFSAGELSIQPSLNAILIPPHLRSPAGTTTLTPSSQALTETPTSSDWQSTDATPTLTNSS
Glycogen synthase kinase-3 beta, sequence (P49841 whole entry): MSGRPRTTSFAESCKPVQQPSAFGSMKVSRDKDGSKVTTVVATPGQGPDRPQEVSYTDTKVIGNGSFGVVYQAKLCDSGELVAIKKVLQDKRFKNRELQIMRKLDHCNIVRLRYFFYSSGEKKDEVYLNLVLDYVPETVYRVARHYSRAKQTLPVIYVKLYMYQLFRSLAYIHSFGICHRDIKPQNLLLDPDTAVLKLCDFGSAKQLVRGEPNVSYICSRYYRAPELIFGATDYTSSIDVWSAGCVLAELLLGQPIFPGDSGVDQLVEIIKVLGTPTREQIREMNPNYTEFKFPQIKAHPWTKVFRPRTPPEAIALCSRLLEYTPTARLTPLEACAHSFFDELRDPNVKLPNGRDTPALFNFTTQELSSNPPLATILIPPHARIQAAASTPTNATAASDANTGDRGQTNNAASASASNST
ORF 73, sequence (O40947 whole entry): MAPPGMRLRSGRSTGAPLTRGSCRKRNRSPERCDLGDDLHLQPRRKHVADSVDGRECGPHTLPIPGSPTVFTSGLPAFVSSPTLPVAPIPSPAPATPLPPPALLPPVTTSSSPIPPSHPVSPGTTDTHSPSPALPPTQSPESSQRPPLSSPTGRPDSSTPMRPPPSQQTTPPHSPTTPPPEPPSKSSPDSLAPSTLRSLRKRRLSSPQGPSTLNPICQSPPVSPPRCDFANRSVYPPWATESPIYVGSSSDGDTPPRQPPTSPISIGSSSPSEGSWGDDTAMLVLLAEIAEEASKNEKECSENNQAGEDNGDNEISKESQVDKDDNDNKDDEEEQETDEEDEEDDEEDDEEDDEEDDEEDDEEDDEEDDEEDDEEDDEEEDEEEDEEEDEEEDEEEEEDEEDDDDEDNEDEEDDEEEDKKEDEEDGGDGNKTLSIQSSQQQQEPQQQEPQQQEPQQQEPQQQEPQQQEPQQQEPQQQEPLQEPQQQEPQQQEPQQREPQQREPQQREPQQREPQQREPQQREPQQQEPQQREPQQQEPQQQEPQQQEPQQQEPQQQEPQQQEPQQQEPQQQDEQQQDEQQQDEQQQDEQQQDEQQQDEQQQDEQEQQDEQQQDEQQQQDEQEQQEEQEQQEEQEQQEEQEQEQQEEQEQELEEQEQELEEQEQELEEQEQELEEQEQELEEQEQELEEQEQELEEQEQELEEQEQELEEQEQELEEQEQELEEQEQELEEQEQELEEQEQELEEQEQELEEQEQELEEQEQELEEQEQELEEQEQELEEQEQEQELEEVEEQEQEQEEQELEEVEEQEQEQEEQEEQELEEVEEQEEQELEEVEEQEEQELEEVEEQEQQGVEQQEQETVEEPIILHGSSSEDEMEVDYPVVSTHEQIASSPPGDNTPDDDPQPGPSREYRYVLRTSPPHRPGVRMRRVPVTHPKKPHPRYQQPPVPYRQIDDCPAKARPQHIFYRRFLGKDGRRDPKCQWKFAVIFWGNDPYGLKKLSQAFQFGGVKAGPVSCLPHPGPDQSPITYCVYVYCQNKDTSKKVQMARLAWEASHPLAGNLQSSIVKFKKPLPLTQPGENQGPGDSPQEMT

Cc1c(C#N)c(NC(=O)CCl)n(Cc2ccc(F)cc2)c1C
EC50 (BJ [1]): 1.88 µM (inconclusive) | EC50 (BJ [2]): > 150 µM (inconclusive) | EC50 (BJ [3]): 16.7 µM (active) | EC50 [4]: 12.1 µM (active) | AC50 [5]: 7.16 µM (active) | AC50 [6]: 15.2 µM (active) | EC50 (Protein RecA): 4.23 µM (active) | AC50 (A-375 [7]): > 35 µM (active) | AC50 (A-375 [8]): > 35 µM (active)

O=C1Nc2cc(C(=O)NCCN3CCCCCC3)ccc2S/C1=C\c1ccccc1
CC50 [9]: 6.89 µM (active) | CC50 [10]: 12.1 µM (active) | CC50 [11]: 12.5 µM (active) | AC50 [5]: 9.78 µM (active) | IC50 (cells): 37.8 µM (active) | AC50 [12]: 63.7 µM (active) | AC50 [13]: 2.29 µM (active)

C=CC1=C(C(=O)O)N2C(=O)[C@@H](NC(=O)/C(=N/OCC(=O)O)c3csc(N)n3)[C@H]2SC1
EC50 [14]: < 60 nM (active) | EC50 (Streptococcus): < 60 nM (active) | AC50 (ORF 73): 34.8 µM (active) | EC50 [15]: 9.93 µM (active) | IC50 [16]: 1.04 µM (active) | IC50 [17]: 76.4 nM (active) | IC50 (Prothrombin): 68.6 µM (active) | IC50 [18]: 500 nM (active) | IC50 [19]: 4.25 µM (active)
